AC50 data for 94 compounds are collected here from PubChem BioAssay AID463074 (Broad Institute, 2010).

Calls of active or inactive are those of the source.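 How the source made its calls: active means AC50 no more than tenfold above the top dose tested, or full inhibition at every dose with a flat fit (cut at about 19 µM in these data); inconclusive means flat curve fit with inhibition between 30% and 70%, or poor fit; inactive means AC50 more than tenfold above the top dose tested.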

This experiment has as its system HMLE_sh_eGFP viability, CellTiter-Glo luminescence, 72 h. The experiment in a line: cytotoxicity in HMLE control line with eGFP shRNA, dose response, counter-screen for HMLE_sh_ECad selective toxicity project, cell-based, HMLE_sh_eGFP, luminescence (AID 463074).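 Further: potency for loss of viability as luminescence drops below DMSO wells.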 For orientation: A counterscreen serves to expose hits that act by an unwanted route or on another target.
Take `Clc1cccc(CN2CCc3c([nH]c4ccccc34)C2)c1Cl`: the AC50 is 6.15 µM.
Turning to `Cc1cccc(-n2cc(-c3ccccc3)c3c(N4CCOCC4)ncnc32)c1`, the AC50 is 4.59 µM.
Take `COc1ccccc1/C=C/C1(C(=O)NC2CCCC2)CC(=O)N1c1ccc(F)cc1` (centres undefined): the AC50 is 10.1 µM.
Consider `C/C(=N\NC(=O)c1nnn(-c2nonc2N)c1CN1CCc2ccccc21)c1ccccc1O`, for which the AC50 was 3.21 µM.
With `Cc1nn(Cc2ccccc2)c(C)c1C(=O)OCC(=O)c1cc(C)n(CC(F)(F)F)c1C`, the AC50 is 14 µM.
Regarding `Cc1cc2c(cc1C)CSC(c1c(O)ccc3ccccc13)SC2`, the AC50 was 3.12 µM.
`Cc1cccc(C)c1OCc1cc(C(=O)N2CC3C[C@@H]4CC2C[C@H](C3)C4)no1`: the AC50 was 2.69 µM.
For the compound `Nc1c(C(O)(C(F)(F)F)C(F)(F)F)cc(C(O)(C(F)(F)F)C(F)(F)F)c2ccccc12`, the AC50 is 3.95 µM.
`COc1ccccc1C1c2ccc3ccccc3c2Oc2ncn(CCN(C)C)c(=N)c21` (centres undefined): the AC50 is 4.22 µM.
For the compound `CC(NC(=O)COC(=O)c1cc(NS(=O)(=O)c2ccc(Cl)c([N+](=O)[O-])c2)ccc1O)C1CC2CCC1C2` (centres undefined), the AC50 is 3.52 µM.
As for `O=S(=O)(c1ccc2ccccc2c1)N1CCN(c2ccc(O)cc2)CC1`, the AC50 is 8.59 µM.
Take `Nc1[nH]n2c(=O)cc(-c3ccccc3)nc2c1N=Nc1ccccc1`: the AC50 is 13.3 µM.
Take `Oc1ccc(Br)cc1/C=N/NC(=S)NCCc1ccccc1`: the AC50 was 4.19 µM.
For the compound `O=[N+]([O-])c1ccc(COc2ccc(-c3[nH]ncc3-c3ccc(Cl)cc3)c(O)c2)cc1`, the AC50 was 4.01 µM.
In the case of `CCCOc1ccc(/C=N/Nc2cc(N3CCOCC3)ncn2)c(O)c1` it was 3.38 µM; in that of `CCOc1cc(CNCCO)cc(Br)c1OCc1ccc(Cl)cc1Cl`, 6.68 µM.
On to `CC(=O)Oc1ccc(C2=NN(c3ccccc3)C(c3ccccc3)C2)cc1` (centres undefined), for which the AC50 was 4.18 µM.
Take `COc1ccc(-c2cc([C@H]3[C@@H]4C=CCC[C@@]4(C)C(=O)N3Cc3ccccc3)ccc2F)cc1OC`: the AC50 is 5.67 µM.
As to `COc1cc2c(cc1NC(=O)Nc1ccc(C)cc1)oc1ccccc12`, the concentration at half-maximal activity (AC50) was 11.3 µM.
Consider `Cc1nc2c3cc(F)ccc3n(Cc3ccccc3)c2s1`, for which the AC50 is 0.825 µM.
As for `COc1ccc(NC(=O)c2ccc(COc3ccccc3Br)o2)cc1OC`, the AC50 was 0.756 µM.
In the case of `Cc1c(C(=O)Nc2ccc(-c3nnc4n3CCCCC4)cc2)oc2c1ccc1ccccc12` it was 5.66 µM.
In the case of `CCOC(=O)c1ccc(-n2[nH]c(-c3ccccc3)cc2=O)cc1`, the AC50 was 7.96 µM.
For the compound `COc1ccc(OC)c(-c2csc(NC(=O)c3ccc(F)cc3)n2)c1`, the AC50 is 6.89 µM.
Take `CCN(c1ccccc1)S(=O)(=O)c1cccc(C(=O)NCC(c2cccs2)N2CCOCC2)c1` (centres undefined): the AC50 was > 19.5 µM (inactive).
For `Cc1ccc(-c2cc(-c3ccccc3)nc(NN)n2)cc1`, the AC50 was 4.19 µM.
In the case of `Cc1cc2nnc(SCC(=O)NCc3ccco3)n2c2ccccc12` it was 4.5 µM; in that of `COc1ccc(-c2cc(=O)n(-c3ccc([N+](=O)[O-])cc3)[nH]2)cc1`, 11.3 µM.
As to `C/C(=N\NC(=S)NC(C)C)c1ccc(C(C)(C)C)cc1`, the AC50 was 10 µM.
As for `O/N=C(\c1ccc(Cl)cc1Cl)c1ncc(C(F)(F)F)cc1Cl`, the AC50 was 13.9 µM.
`CC(C)(C)OC(=O)[C@H](Cc1ccccc1)NC(=O)c1[nH]cnc1C(=O)Nc1ccc(Cl)cc1`: the AC50 was 3.92 µM.
In the case of `CCN(CC)C1CCN(C(=O)c2cc(COc3ccc(F)cc3Cl)on2)C1` (centres undefined), the AC50 is 15.4 µM.
The same measure for `Cc1cc(N=Nc2ccc3ccccc3c2)ccc1O`: 6.83 µM.
Consider `Cc1cc(C)c(C)c(S(=O)(=O)N2CCN(c3ccc(O)cc3)CC2)c1C`, for which the half-maximal activity concentration (AC50) is 10.7 µM.
The same measure for `O=C(Nc1ccc(C(F)(F)F)cc1)c1cccn(Cc2ccc3c(c2)OC(F)(F)O3)c1=O`: 4.91 µM; for `C/C(=N\NC(N)=S)c1cc(-c2ccccc2)c(-c2ccccc2)s1`: 3.94 µM.
The same measure for `Cc1nc(NC(=O)CC(C)C)sc1-c1csc(Nc2ccc(Cl)cc2Cl)n1`: 2.38 µM.
`Cc1nn(-c2ccccc2)c(N2CCCCC2)c1/C=N/O`: the AC50 is 1.69 µM.
In the case of `CC(NS(=O)(=O)OCC(Cl)(Cl)Cl)c1ccc(C(C)(C)C)cc1` (centres undefined) it was 3.57 µM; in that of `CCOc1cc(/C=N/O)cc(Br)c1OCc1ccc(Cl)cc1`, 5.69 µM; in that of `O=C(NCc1cccnc1)/C(=C\c1ccc(-c2cccc(Cl)c2)o1)S(=O)(=O)c1ccccc1`, 3.13 µM.
In the case of `O=C1CC(=Nc2ccccc2)NN1c1ccccc1`, the AC50 was 12.4 µM.
Turning to `CCCOc1ccc(C(=O)C(CN2CCCC2)c2ccccc2)cc1` (centres undefined), the AC50 is 3.3 µM.
On to `CCOc1ccc(C(=O)CCC(=O)N2CCN(c3ccc(O)cc3)CC2)cc1`, for which the AC50 is 2.49 µM.
With `O=[N+]([O-])c1c(NCCCO)cc(Sc2ccc(Cl)cc2)c2nonc12`, the AC50 is 4.89 µM.
Take `O=C(/C=C/c1ccc2c(c1)OCCCO2)c1ccc2ccccc2c1O`: the AC50 is 12 µM.
With `Cc1ccc(C(NC(=O)C(C)C)c2cc([N+](=O)[O-])c3cccnc3c2O)cc1` (centres undefined), the AC50 is 3.16 µM.
`Cn1nnnc1Sc1ncnc2scc(-c3cccc4c3sc3ccccc34)c12`: the AC50 was 1.65 µM.
As for `COc1ccccc1/C=C/C=N/n1c(-c2n[nH]c3c2CCC3)n[nH]c1=S`, the AC50 is 19.7 µM.
On to `CCCc1c(-c2ccc(O)cc2)nn(-c2ccc(O)cc2)c1-c1ccc(O)cc1`, for which the AC50 is 6.1 µM.
Consider `COC(=O)c1c(-c2ccc(OC)cc2)oc2ccc(-c3cc(OC)c(OC)c(OC)c3)cc12`, for which the AC50 is 4.97 µM.
For the compound `Cc1ccc(-n2nnnc2Sc2ccc(S(=O)(=O)NCCN(C)C)cc2[N+](=O)[O-])cc1`, the AC50 is 6.72 µM.
Consider `O=C(COCC(=O)Nc1cccc(C(F)(F)F)c1)Nc1cccc(C(F)(F)F)c1`, for which the AC50 is 7.59 µM.
The same measure for `O=C(Nc1cc(N2CCOCC2)ncn1)NC1(C(F)(F)F)Oc2ccc(Cl)cc2O1` (centres undefined): 14.7 µM.
With `Cn1c(N)c(C(=O)COC(=O)c2ccccc2C(=O)c2ccc(Cl)c([N+](=O)[O-])c2)c(=O)n(C)c1=O`, the AC50 is 3.61 µM.
The same measure for `CCNS(=O)(=O)c1ccc(NC(=O)Nc2cccc(C(F)(F)F)c2)cc1`: 13.5 µM.
`O=C(COc1ccccc1-c1ccccc1)N/N=C/c1ccc2ccccc2c1`: the AC50 is 3.67 µM.
Regarding `CCOC(=O)/C(=C\c1ccc([N+](=O)[O-])cc1)C(=O)c1cc(C(C)=O)c(Nc2ccccc2)s1`, the AC50 was 1.07 µM.
Take `COc1ccc(C(=O)c2ccc3oc(-c4ccc(OC)cc4)c(-c4ccc(O)cc4)c3c2)cc1`: the AC50 is 3.87 µM.
For `CCCc1cc(-c2nc(-c3ccc(C)cc3)cs2)ccn1`, the AC50 is 5.16 µM.
Regarding `O=C(NCc1ccco1)c1cc(-c2ccc3c(c2)OCO3)on1`, the concentration at half-maximal activity (AC50) is 0.973 µM.
As to `Cc1nc2c(sc3nc(N4CCOCC4)c4c(c32)CC(C)(C)OC4)c(-c2ccccc2)c1C(=O)O`, the AC50 is 1.98 µM.
For `Clc1ccc(-c2nnc(-c3ccccc3)c(-c3ccccc3)n2)cc1`, the AC50 is 3.69 µM.
Consider `COc1cc2sc(-c3ccccc3OC)c(-c3ccc(OCCN4CCCCC4)cc3)c2cc1OC`, for which the AC50 was 4.24 µM.
As to `Cc1ccc2nc(N(CCCN(C)C)C(=O)c3cc(-c4cccs4)nc4ccccc34)sc2c1`, the AC50 was 6.4 µM.
With `Cc1ccc(-c2cc(C(=O)NCc3ccc4c(c3)OCO4)no2)cc1`, the AC50 was > 19.5 µM (inactive).
`CCSc1nnc(-c2sc3nnc(-c4ccccc4)c(-c4ccccc4)c3c2N)o1`: the AC50 was 0.539 µM.
Turning to `O=[N+]([O-])c1cc(S(=O)(=O)C(F)(F)F)ccc1Sc1nc2ccccc2[nH]1`, the AC50 is 4.46 µM.
Turning to `Oc1ccccc1/C=N/NP(=S)(c1ccccc1)c1ccccc1`, the AC50 is 6.98 µM.
As to `O=C(C1CCCN(S(=O)(=O)c2ccc([N+](=O)[O-])cc2)C1)N1CCCCC1` (centres undefined), the AC50 is > 19.5 µM (inactive).
For `O=C(/C=C/c1ccc2c(c1)OCO2)Nc1nc(-c2ccccc2)cs1`, the AC50 was 0.781 µM.
Regarding `COc1ccc(-c2sc3ccccc3c2C#CCCO)cc1`, the AC50 is 6.5 µM.
As for `c1ccc(-c2sc3ccccc3c2-c2ccc(OCCN3CCOCC3)cc2)cc1`, the AC50 is 3.24 µM.
Take `Cc1c(NC(=O)c2ccc([N+](=O)[O-])o2)cccc1-c1nc2ncccc2o1`: the AC50 was 6.52 µM.
Take `Clc1ccc2nnnc(-c3ccccc3)c2c1`: the AC50 was 4.26 µM.
`COc1ccccc1C1=NOC(COc2ccc3c(C)cc(=O)oc3c2)C1` (centres undefined): the AC50 was 0.288 µM.
In the case of `COc1ccc(-c2nc(N)nc(C)c2Oc2ccccc2Br)c(O)c1` it was 5.08 µM.
As for `O=C(O)CCn1cc(/C=C/C(=O)c2ccc(Cl)cc2)c(-c2ccc(Br)cc2)n1`, the AC50 is 7.09 µM.
For `COc1cccc(-c2sc3ccccc3c2-c2ccc(OCCN3CCCCC3)cc2)c1`, the AC50 is 1.41 µM.
As for `C/C(=N\NC(=O)c1cccc(Cl)c1)C1C(=O)c2ccccc2C1=O`, the AC50 was 20.1 µM.
Take `Cc1cc(C)nc(SCc2ccc(C(=O)NNC(=O)Nc3cccc(Cl)c3)cc2)n1`: the AC50 was 3.92 µM.
For `Cc1nn(Cc2ccc(C(=O)Nc3nccs3)cc2)c(C)c1Cl`, the AC50 is 0.661 µM.
Take `CCCCC(CC)CN1C(=O)/C(=C/c2ccncc2)SC1=S` (centres undefined): the AC50 is 6.81 µM.
As to `Oc1ccc(N=Nc2ccc(Br)cc2)c(O)c1`, the AC50 is 17.3 µM.
For `CCCCCCCCOC(=O)C1=C(C)Nc2nnnn2C1c1cccs1` (centres undefined), the AC50 is 6.86 µM.
The same measure for `S=C(Nc1ccc(Oc2ccccc2)cc1)NC1CCCCCC1`: 4.84 µM.
Regarding `CCCc1cc(-c2nc(N)ncc2-c2ccc3c(c2)OCCCO3)c(O)cc1OC`, the AC50 was 4.18 µM.
Take `O=C(CN1CCN(c2ccc(O)cc2)CC1)Nc1ccc(SC(F)F)cc1`: the AC50 was 6.17 µM.
For the compound `Cn1nnnc1Sc1ncnc2scc(-c3cc4ccccc4o3)c12`, the AC50 was 1.17 µM.
With `CC(C)OC(=O)c1c2c(n3ccccc13)C(=O)c1ccccc1C2=O`, the AC50 is > 19.5 µM (inactive).
As to `O=C1NC(=O)N(CCc2ccc(F)cc2)C(=O)/C1=C/C=C/c1ccccc1`, the AC50 was 3.91 µM.
The same measure for `COC(=O)C1=C(C)N(Cc2ccccc2)C(=NCc2cccc(Cl)c2)N[C@H]1c1ccccc1`: 7.17 µM.
With `C/C(=N/Nc1ccc([N+](=O)[O-])cc1)c1ccc(C)cc1C`, the AC50 is 7.68 µM.
On to `N/C(=N\N=C/c1ccc(F)cc1)N/N=C\c1ccc(F)cc1`, for which the AC50 is 5.13 µM.

The term AC50 denotes the concentration at which the activity in the assay is half-maximal.
